Reference: ChEMBL document CHEMBL6153110, “Peptide Double-Stapling and Arginine N-Glycosylation Triggered the Development of Therapeutic Antimicrobial Peptides Capable of Killing Drug-Resistant Bacteria in Mice” (J Med Chem, 2025)
≈ marks a conversion by molar mass, not a printed value. Starred links: 1 amine or outer side, 2 acyl side, 3 side chain; linkers in the order of their positions; H or OH if unused. Positions of bridges follow the written chain, without caps; N, C: chain ends. Non-standard residues stand in square brackets, D forms with d. Residues, ends and D or L forms follow the SMILES beside them. X1 = N=C(NCCC[C@H](N[*:1])C(=O)[*:2])N[C@@H]1O[C@H](CO)[C@@H](O[C@H]2O[C@H](CO)[C@@H](O[C@H]3O[C@H](CO)[C@@H](O)[C@H](O)[C@H]3O)[C@H](O)[C@H]2O)[C@H](O)[C@H]1O; Arg(Nω-βLac) = N=C(NCCC[C@H](N)C(=O)O)N[C@@H]1O[C@H](CO)[C@@H](O[C@@H]2O[C@H](CO)[C@H](O)[C@H](O)[C@H]2O)[C@H](O)[C@H]1O; X2 = CC(=O)N[C@@H]1[C@@H](O)[C@H](O)[C@@H](CO)O[C@H]1NC(=N)NCCC[C@H](N[*:1])C(=O)[*:2]; S5 = C=CCCC[C@](C)(N)C(=O)O

Columns and labels:
[1] = Hemolytic activity in BALB/c mouse red blood cells assessed as hemolysis incubated for 1 hrs; format: toxicity, cell-based, Erythrocyte; conditions: read-out: HD50
Pseudomonas aeruginosa = experiment: Antimicrobial activity against Pseudomonas aeruginosa ATCC 27853 assessed as growth inhibition measured after 8 hrs incubation by standard broth dilution assay; format: functional
Streptococcus pneumoniae = experiment: Antimicrobial activity against Streptococcus pneumoniae ATCC 49619 assessed as growth inhibition measured after 8 hrs incubation by standard broth dilution assay; format: functional
Staphylococcus aureus = experiment: Antimicrobial activity against methicillin-resistant Staphylococcus aureus ATCC 43300 assessed as growth inhibition measured after 8 hrs incubation by standard broth dilution assay; format: functional
Klebsiella pneumoniae = experiment: Antimicrobial activity against Klebsiella pneumoniae ATCC 13883 assessed as growth inhibition measured after 8 hrs incubation by standard broth dilution assay; format: functional

| Structure (SMILES) | HC50 at 1 h [1] | MIC (Pseudomonas aeruginosa) | MIC (Streptococcus pneumoniae) | MIC (Staphylococcus aureus) | MIC (Klebsiella pneumoniae) |
| --- | --- | --- | --- | --- | --- |
| CC(=O)N[C@@H](CCCCN)C(=O)N[C@@H](CCCCN)C(=O)N[C@@H](CCCNC(=N)N)C(=O)N[C@H](C(=O)N[C@@]1(C)CCC/C=C\CCC[C@@](C)(C(=O)N[C@@H](CCCCN)C(=O)N[C@@H](CC(C)C)C(=O)N[C@@H](CC(C)C)C(=O)N[C@@H](CCCCN)C(=O)N[C@@]2(C)CCC/C=C\CCC[C@@](C)(C(=O)N[C@@H](CC(C)C)C(=O)N[C@@H](CCCCN)C(=O)N[C@@H](CCCCN)C(=O)N3CCC[C@H]3C(=O)N[C@H](C(=O)N[C@@H](CCCNC(=N)N)C(N)=O)C(C)C)NC(=O)[C@H](CCCNC(=N)N)NC(=O)[C@H](Cc3c[nH]c4ccccc34)NC(=O)[C@H](Cc3ccc(O)cc3)NC2=O)NC(=O)[C@H](C(C)C)NC(=O)[C@H](CCCNC(=N)N)NC(=O)[C@H](CCCCN)NC1=O)C(C)C (Ac-KKRV[S5]KRV[S5]KLLK[S5]YWR[S5]LKKPVR-NH2; staple (Z) 5-9, 14-18) | 13.2 µg/mL | 5 µg/mL (≈ 1.58 µM) | 4.7 µg/mL (≈ 1.48 µM) | 4.9 µg/mL (≈ 1.55 µM) | 4.9 µg/mL (≈ 1.55 µM) |
| CC(=O)N[C@@H]1[C@@H](O)[C@H](O)[C@@H](CO)O[C@H]1NC(=N)NCCC[C@H](NC(=O)[C@H](CCCCN)NC(=O)[C@H](CC(C)C)NC(C)=O)C(=O)N[C@H](C(=O)N[C@@H](Cc1c[nH]c2ccccc12)C(=O)N[C@@H](CCCCN)C(=O)N[C@@H](CCCNC(=N)N)C(=O)N[C@H](C(=O)N[C@@H](Cc1ccccc1)C(=O)N[C@@H](CCCCN)C(=O)N[C@@H](CC(C)C)C(=O)N[C@@H](CC(C)C)C(=O)N[C@@H](CCCCN)C(=O)N[C@@H](CCCNC(=N)N)C(=O)N[C@@H](Cc1ccc(O)cc1)C(=O)N[C@@H](Cc1c[nH]c2ccccc12)C(=O)N[C@@H](CCCNC(=N)N)C(=O)N[C@@H](CCC(N)=O)C(=O)N[C@@H](CC(C)C)C(=O)N[C@@H](CCCCN)C(=O)N[C@@H](CCCCN)C(=O)N1CCC[C@H]1C(=O)N[C@H](C(=O)N[C@@H](CCCNC(=N)N)C(N)=O)C(C)C)C(C)C)C(C)C (Ac-LK[X2]VWKRVFKLLKRYWRQLKKPVR-NH2) | 45.2 µg/mL | 5 µg/mL (≈ 1.44 µM) | 9.9 µg/mL (≈ 2.85 µM) | 2.5 µg/mL (≈ 0.72 µM) | 38 µg/mL (≈ 10.9 µM) |
| CC(=O)N[C@@H](CC(C)C)C(=O)N[C@@H](CCCCN)C(=O)N[C@@H](CCCNC(=N)N)C(=O)N[C@H](C(=O)N[C@@H](Cc1c[nH]c2ccccc12)C(=O)N[C@@H](CCCCN)C(=O)N[C@@H](CCCNC(=N)N)C(=O)N[C@H](C(=O)N[C@@H](Cc1ccccc1)C(=O)N[C@@H](CCCCN)C(=O)N[C@@H](CC(C)C)C(=O)N[C@@H](CC(C)C)C(=O)N[C@@H](CCCCN)C(=O)N[C@@]1(C)CCC/C=C\CCC[C@@](C)(C(=O)N[C@@H](CCCCN)C(=O)N[C@@H](CCCCN)C(=O)N[C@@H](CCCCN)C(=O)N2CCC[C@H]2C(=O)N[C@H](C(=O)N[C@@H](CCCNC(=N)N)C(N)=O)C(C)C)NC(=O)[C@H](CCCNC(=N)N)NC(=O)[C@H](Cc2c[nH]c3ccccc23)NC(=O)[C@H](Cc2ccc(O)cc2)NC1=O)C(C)C)C(C)C (Ac-LKRVWKRVFKLLK[S5]YWR[S5]KKKPVR-NH2; staple (Z) 14-18) | 10.8 µg/mL | 5 µg/mL (≈ 1.54 µM) | 4.7 µg/mL (≈ 1.45 µM) | 10.1 µg/mL (≈ 3.11 µM) | 19 µg/mL (≈ 5.85 µM) |
| CC(=O)N[C@@H](CCCCN)C(=O)N[C@@H](CCCCN)C(=O)N[C@@H](CCCNC(=N)N)C(=O)N[C@H](C(=O)N[C@@H](Cc1c[nH]c2ccccc12)C(=O)N[C@@H](CCCCN)C(=O)N[C@@H](CCCNC(=N)N)C(=O)N[C@@]1(C)CCC/C=C\CCC[C@@](C)(C(=O)N[C@@H](CCCCN)C(=O)N[C@@]2(C)CCC/C=C\CCC[C@@](C)(C(=O)N[C@@H](CC(C)C)C(=O)N[C@@H](CCCCN)C(=O)N[C@@H](CCCCN)C(=O)N3CCC[C@H]3C(=O)N[C@H](C(=O)N[C@@H](CCCNC(=N)N)C(N)=O)C(C)C)NC(=O)[C@H](CCCNC(=N)N)NC(=O)[C@H](Cc3c[nH]c4ccccc34)NC(=O)[C@H](Cc3ccc(O)cc3)NC2=O)NC(=O)[C@H](CC(C)C)NC(=O)[C@H](CCCCN)NC(=O)[C@H](Cc2ccccc2)NC1=O)C(C)C (Ac-KKRVWKR[S5]FKL[S5]K[S5]YWR[S5]LKKPVR-NH2; staple (Z) 8-12, 14-18) | 15.3 µg/mL | 5 µg/mL (≈ 1.52 µM) | 2.4 µg/mL (≈ 0.73 µM) | 4.9 µg/mL (≈ 1.49 µM) | 4.6 µg/mL (≈ 1.4 µM) |
| CC(=O)N[C@@H](CC(C)C)C(=O)N[C@@H](CCCCN)C(=O)N[C@@H](CCCNC(=N)N[C@@H]1O[C@H](CO)[C@@H](O[C@H]2O[C@H](CO)[C@@H](O[C@H]3O[C@H](CO)[C@@H](O)[C@H](O)[C@H]3O)[C@H](O)[C@H]2O)[C@H](O)[C@H]1O)C(=O)N[C@H](C(=O)N[C@@H](Cc1c[nH]c2ccccc12)C(=O)N[C@@H](CCCCN)C(=O)N[C@@H](CCCNC(=N)N)C(=O)N[C@H](C(=O)N[C@@H](Cc1ccccc1)C(=O)N[C@@H](CCCCN)C(=O)N[C@@H](CC(C)C)C(=O)N[C@@H](CC(C)C)C(=O)N[C@@H](CCCCN)C(=O)N[C@@H](CCCNC(=N)N)C(=O)N[C@@H](Cc1ccc(O)cc1)C(=O)N[C@@H](Cc1c[nH]c2ccccc12)C(=O)N[C@@H](CCCNC(=N)N)C(=O)N[C@@H](CCC(N)=O)C(=O)N[C@@H](CC(C)C)C(=O)N[C@@H](CCCCN)C(=O)N[C@@H](CCCCN)C(=O)N1CCC[C@H]1C(=O)N[C@H](C(=O)N[C@@H](CCCNC(=N)N)C(N)=O)C(C)C)C(C)C)C(C)C (Ac-LK[X1]VWKRVFKLLKRYWRQLKKPVR-NH2) | 58.1 µg/mL | 5 µg/mL (≈ 1.33 µM) | 16.9 µg/mL (≈ 4.5 µM) | 2.5 µg/mL (≈ 0.666 µM) | 38 µg/mL (≈ 10.1 µM) |
| CC(=O)N[C@@H](CC(C)C)C(=O)N[C@@H](CCCCN)C(=O)N[C@@H](CCCNC(=N)N[C@@H]1O[C@H](CO)[C@@H](O[C@@H]2O[C@H](CO)[C@H](O)[C@H](O)[C@H]2O)[C@H](O)[C@H]1O)C(=O)N[C@H](C(=O)N[C@@H](Cc1c[nH]c2ccccc12)C(=O)N[C@@H](CCCCN)C(=O)N[C@@H](CCCNC(=N)N)C(=O)N[C@H](C(=O)N[C@@H](Cc1ccccc1)C(=O)N[C@@H](CCCCN)C(=O)N[C@@H](CC(C)C)C(=O)N[C@@H](CC(C)C)C(=O)N[C@@H](CCCCN)C(=O)N[C@@H](CCCNC(=N)N)C(=O)N[C@@H](Cc1ccc(O)cc1)C(=O)N[C@@H](Cc1c[nH]c2ccccc12)C(=O)N[C@@H](CCCNC(=N)N)C(=O)N[C@@H](CCC(N)=O)C(=O)N[C@@H](CC(C)C)C(=O)N[C@@H](CCCCN)C(=O)N[C@@H](CCCCN)C(=O)N1CCC[C@H]1C(=O)N[C@H](C(=O)N[C@@H](CCCNC(=N)N)C(N)=O)C(C)C)C(C)C)C(C)C (Ac-LK[Arg(Nω-βLac)]VWKRVFKLLKRYWRQLKKPVR-NH2) | 33.8 µg/mL | 5 µg/mL (≈ 1.39 µM) | 9.9 µg/mL (≈ 2.76 µM) | 4.9 µg/mL (≈ 1.36 µM) | 38 µg/mL (≈ 10.6 µM) |
| CC(=O)N[C@@H](CCCCN)C(=O)N[C@@H](CCCCN)C(=O)N[C@@H](CCCNC(=N)N)C(=O)N[C@@H](CCCCN)C(=O)N[C@@H](Cc1c[nH]c2ccccc12)C(=O)N[C@@H](CCCCN)C(=O)N[C@@H](CCCNC(=N)N)C(=O)N[C@@]1(C)CCC/C=C\CCC[C@@](C)(C(=O)N[C@@H](CCCCN)C(=O)N[C@@]2(C)CCC/C=C\CCC[C@@](C)(C(=O)N[C@@H](CC(C)C)C(=O)N[C@@H](CCCCN)C(=O)N[C@@H](CCCCN)C(=O)N3CCC[C@H]3C(=O)N[C@H](C(=O)N[C@@H](CCCNC(=N)N)C(N)=O)C(C)C)NC(=O)[C@H](CCCNC(=N)N)NC(=O)[C@H](Cc3c[nH]c4ccccc34)NC(=O)[C@H](Cc3ccc(O)cc3)NC2=O)NC(=O)[C@H](CC(C)C)NC(=O)[C@H](CCCCN)NC(=O)[C@H](Cc2ccccc2)NC1=O (Ac-KKRKWKR[S5]FKL[S5]K[S5]YWR[S5]LKKPVR-NH2; staple (Z) 8-12, 14-18) | 26.5 µg/mL | 2.6 µg/mL (≈ 0.784 µM) | 2.4 µg/mL (≈ 0.724 µM) | 2.5 µg/mL (≈ 0.754 µM) | 10.1 µg/mL (≈ 3.05 µM) |
| CC(=O)N[C@@H](CC(C)C)C(=O)N[C@@H](CCCCN)C(=O)N[C@@H](CCCNC(=N)N)C(=O)N[C@H](C(=O)N[C@@H](Cc1c[nH]c2ccccc12)C(=O)N[C@@H](CCCCN)C(=O)N[C@@H](CCCNC(=N)N)C(=O)N[C@H](C(=O)N[C@@H](Cc1ccccc1)C(=O)N[C@@H](CCCCN)C(=O)N[C@@H](CCCCN)C(=O)N[C@@H](CC(C)C)C(=O)N[C@@H](CCCCN)C(=O)N[C@@]1(C)CCC/C=C\CCC[C@@](C)(C(=O)N[C@@H](CC(C)C)C(=O)N[C@@H](CCCCN)C(=O)N[C@@H](CCCCN)C(=O)N2CCC[C@H]2C(=O)N[C@H](C(=O)N[C@@H](CCCNC(=N)N)C(N)=O)C(C)C)NC(=O)[C@H](CCCNC(=N)N)NC(=O)[C@H](Cc2c[nH]c3ccccc23)NC(=O)[C@H](Cc2ccc(O)cc2)NC1=O)C(C)C)C(C)C (Ac-LKRVWKRVFKKLK[S5]YWR[S5]LKKPVR-NH2; staple (Z) 14-18) | 35.2 µg/mL | 5 µg/mL (≈ 1.54 µM) | 4.7 µg/mL (≈ 1.45 µM) | 10.1 µg/mL (≈ 3.11 µM) | 38 µg/mL (≈ 11.7 µM) |
| CC(=O)N[C@@H](CC(C)C)C(=O)N[C@@H](CCCCN)C(=O)N[C@@H](CCCNC(=N)N)C(=O)N[C@@H](CCCCN)C(=O)N[C@@H](Cc1c[nH]c2ccccc12)C(=O)N[C@@H](CCCCN)C(=O)N[C@@H](CCCNC(=N)N)C(=O)N[C@H](C(=O)N[C@@H](Cc1ccccc1)C(=O)N[C@@H](CCCCN)C(=O)N[C@@H](CC(C)C)C(=O)N[C@@H](CC(C)C)C(=O)N[C@@H](CCCCN)C(=O)N[C@@]1(C)CCC/C=C\CCC[C@@](C)(C(=O)N[C@@H](CC(C)C)C(=O)N[C@@H](CCCCN)C(=O)N[C@@H](CCCCN)C(=O)N2CCC[C@H]2C(=O)N[C@H](C(=O)N[C@@H](CCCNC(=N)N)C(N)=O)C(C)C)NC(=O)[C@H](CCCNC(=N)N)NC(=O)[C@H](Cc2c[nH]c3ccccc23)NC(=O)[C@H](Cc2ccc(O)cc2)NC1=O)C(C)C (Ac-LKRKWKRVFKLLK[S5]YWR[S5]LKKPVR-NH2; staple (Z) 14-18) | 9.9 µg/mL | 5 µg/mL (≈ 1.53 µM) | 2.4 µg/mL (≈ 0.736 µM) | 4.9 µg/mL (≈ 1.5 µM) | 10.1 µg/mL (≈ 3.1 µM) |
